{"source": "paper PMC3377386", "about": "(Pharmaceutical Research, 2011)", "key": {"[1]": {"conditions": "for Css: one 50-MN array"}, "[2]": {"conditions": "hairless, guinea pig, in vivo"}, "[3]": {"conditions": "I.V. dose of 3 mg/kg; cited from earlier work"}, "[4]": {"conditions": "in seven days; a similarly done study (reference not given); cited from earlier work"}, "[5]": {"conditions": "MN + Solaraze® + 16% NTX·HCl, n=4"}}, "note": "Counter-ions that a name gives are not always drawn. Like-named read-outs stand apart in the source and are kept apart here.", "data": [{"smiles": "O=C1CC[C@@]2(O)[C@H]3Cc4ccc(O)c5c4[C@@]2(CCN3CC2CC2)[C@H]1O5", "note": "[NTX·HCl, naltrexone HCl]", "values": [{"measurement": "delivered fraction of the dose", "setting": "[1]; 2.65 mg of 80 mg NTX applied to the MN-treated area", "result": "less than 5%"}, {"measurement": "Css", "setting": "[1]; MN + 16% NTX·HCl (control, no Solaraze®), n=4", "result": "3.4 ± 1.3", "unit": "ng/mL"}, {"measurement": "Tlag", "setting": "[1]; MN + 16% NTX·HCl (no Solaraze®), n=4", "result": "1.8 ± 1.5", "unit": "h"}, {"measurement": "duration of increased plasma levels (Css)", "setting": "[1]; MN + Solaraze® + 16% NTX·HCl gel, n=4", "result": "seven"}, {"measurement": "Tlag", "setting": "[1]; [5]", "result": "21.5 ± 12.6", "unit": "h"}, {"measurement": "Css", "setting": "[1]; [5]", "result": "7.0 ± 1.5", "unit": "ng/mL"}, {"measurement": "time at which NTX·HCl levels returned to baseline", "setting": "[1]; control: one-time MN + 0.5 g 16% NTX·HCl, 6.7 cm^2, no Solaraze®", "result": "≤ 60", "unit": "h"}, {"measurement": "flux corresponding to the steady-state concentration", "setting": "[1]; from Css of 7.0 ng/ml, 6.7 cm^2 patch", "result": "approximately 16.14 nmol/cm^2/h"}, {"measurement": "total delivery of naltrexone", "setting": "[2]", "result": 2.65, "unit": "mg"}, {"measurement": "systemic dose AUC", "setting": "[3]", "result": 546, "unit": "ng/mL/h"}, {"measurement": "fraction of the total drug applied delivered through the skin", "setting": "[4]", "result": "less than 5%"}]}]}
